Drawing on US20100075960A1 (priority 2006, published 2010), this text covers IC50 for 27 molecules.

In this test the test system is HCT116. As to the kind of experiment: Inhibition of cell proliferation, HCT116. In kind it is cell-based. As to conditions: Homo sapiens, HCT-116; 72 h treatment; methylene blue or CellTiter-Glo. How it is done: II. Inhibition of Cell Proliferation by PLK1 Inhibitors.
Exponentially growing cell lines of different tumor origins, cultured in appropriate media containing 10% fetal bovine serum at 37° C. in a 5% CO2 incubator were plated in 96 or 384-well plates. Twenty four hours post-plating, cells were treated with different concentrations of test compounds ranging from 20 μM to 0.04 nM. Several wells were left untreated as a control. Seventy two hours post-treatment, cell numbers were determined using different techniques; 100 μl per well of methylene blue (Sigma M9140) (0.5% in 50:50 Ethanol:water), or 10-100 μl per well of CellTiter-Glo (Promega #G7573), depending on well size. For methylene blue staining, stain was incubated at room temperature for 30 minutes before plates were rinsed and dye solubilized in 1% N-lauroyl sarcosine, sodium salt, (Sigma L5125, in PBS). Plates were read on a microplate reader, measuring the OD at 620 nm. For CellTiter-Glo, plates were incubated at room temperature for 15 minutes and the chemiluminescent signal was read on the Victor V or Envison 2100 reader.
Percent inhibition of cell growth was expressed as percent proliferation relative to 100% proliferation (control). Concentration of test compound that inhibited 50% of cell growth (IC50) was determined by 4 parameter fit of data using XLfit, (value of no cell control was substracted from all samples for background). The data are shown in Table 1 and Table 2 below and represent a compilation of several different experiments each performed using the general parameters outlined above, although minor variations may have been employed in some instances, in Table 1 and Table 2, +=IC50>1 μM; ++=IC50 0.5-1 μM: +++=IC50<0.5 μM.
Background: Cellular ATP, detected with luciferase, serves as a proxy for viable cell number.
`C[C@@H](Oc1cc(-n2cnc3cc(Cl)c(F)cc32)sc1C(N)=O)c1cccc(OC2CCN(C)CC2)c1Cl` [Example 68, 5-(5-Chloro-6-fluoro-1H-benzimidazol-1-yl)-3-[((1R)-1-{2-chloro-3-[(1-methyl-4-piperidinyl)oxy]phenyl}ethyl)oxy]-2-thiophenecarboxamide]: the 50% inhibitory concentration (IC50) (usually the concentration that inhibits the measured activity by half) was less than 500 nM.

In turn, `C[C@@H](Oc1cc(-n2cnc3cc(Cl)c(F)cc32)sc1C(N)=O)c1cccc(OC2CCNCC2)c1Cl` [Example 67] had a concentration for half-maximal inhibition (IC50) of less than 500 nM.

As to `C[C@@H](Oc1cc(-n2cnc3ccc(Br)cc32)sc1C(N)=O)c1cccc(OC2CCNCC2)c1Cl` [Example 7, 5-(6-Bromo-1H-benzimidazol-1-yl)-3-({(1R)-1-[2-chloro-3-(4-piperidinyloxy)phenyl]ethyl}oxy)-2-thiophenecarboxamide], the IC50 is less than 500 nM.

For `C[C@@H](Oc1cc(-n2cnc3ccc(OC(F)(F)F)cc32)sc1C(N)=O)c1cccc(OC2CCNCC2)c1Cl` [Example 63, 3-({(1R)-1-[2-chloro-3-(4-piperidinyloxy)phenyl]ethyl}oxy)-5-[6-[(trifluoromethyl)oxy]-1H-1-benzimidazol-1-yl}-2-thiophenecarboxamide], the IC50 was less than 500 nM. The value for `COc1cc2ncn(-c3cc(O[C@H](C)c4cccc(NCC5CCN(C)CC5)c4Cl)c(C(N)=O)s3)c2cc1OC` [Example 2] was less than 500 nM; that for `COc1cc2ncn(-c3cc(O[C@H](C)c4cccc(OCC5CCNCC5)c4Cl)c(C(N)=O)s3)c2cc1OC` [Example 40, 5-[5,6-Bis(methyloxy)-1H-benzimidazol-1-yl]-3-[((1R)-1-{2-chloro-3-[(4-piperidinylmethyl)oxy]phenyl}ethyl)oxy]-2-thiophenecarboxamide] was less than 500 nM. The value for `C[C@@H](Oc1cc(-n2cnc3ccccc32)sc1C(N)=O)c1cccc(OCCN2CCN(C)CC2)c1Cl` [Example 17] was less than 500 nM; that for `C[C@@H](Oc1cc(-n2cnc3ccc(CS(C)(=O)=O)cc32)sc1C(N)=O)c1cccc(OC2CCNCC2)c1Cl` [Example 54] was greater than 1000 nM; that for `C[C@@H](Oc1cc(-n2cnc3cc(Cl)c(Cl)cc32)sc1C(N)=O)c1cccc(OC2CCNCC2)c1Cl` [Example 71, 3-({(1R)-1-[2-Chloro-3-(4-piperidinyloxy)phenyl]ethyl}oxy)-5-(5,6-dichloro-1H-benzimidazol-1-yl)-2-thiophenecarboxamide] was less than 500 nM.

In the case of `CN1CCC(Oc2cccc(COc3cc(-n4cnc5cc(-c6cnn(C)c6)ccc54)sc3C(N)=O)c2)CC1` [Example 84, 3-[({3-[(1Methyl-4piperidinyl)oxy]phenyl}methyl)oxy]-5-[5-(1-methyl-1H-pyrazol-4-yl)-1H-benzimidazol-1-yl]-2-thiophenecarboxamide], the half-inhibitory concentration (IC50) is 500 to 1000 nM. Consider `C[C@@H](Oc1cc(-n2cnc3cc(-c4cnn(C)c4)ccc32)sc1C(N)=O)c1ccc(F)c(OC2CCN(CCF)CC2)c1Cl` [Example 35, 3-{[(1R)-1-(2-Chloro-4-fluoro-3-{[1-(2-fluoroethyl)-4-piperidinyl]oxy}phenyl)ethyl]oxy}-5-[5-(1-methyl-1H-pyrazol-4-yl)-1H-benzimidazol-1-y]-2-thiophenecarboxamide], for which the 50% inhibitory concentration (IC50) was less than 500 nM.

`CC(Oc1cc(-n2cnc3cc(-c4cnn(C)c4)ccc32)sc1C(N)=O)c1cccc(OC2CCNCC2)c1F` (racemic) [Example 75] gave a 50% inhibitory concentration (IC50) of less than 500 nM. `COc1cc2ncn(-c3cc(O[C@H](C)c4cccc(OCC5CCN(C(=O)OC(C)(C)C)CC5)c4Cl)c(C(N)=O)s3)c2cc1OC` [Example 39, 1,1-Dimethylethyl 4-[({3-[(1R)-1-({2-(aminocarbonyl)-5-[5,6-bis(methyloxy)-1H-benzimidazol-1-yl]-3-thienyl}oxy)ethyl]-2-chlorophenyl}oxy)methyl]-1-piperidinecarboxylate] registered an IC50 of 500 to 1000 nM. `C[C@@H](Oc1cc(-n2cnc3cc(-c4cnn(C)c4)ccc32)sc1C(N)=O)c1cccc(OC2CCN(CCC(F)(F)F)CC2)c1Cl` [Example 30, 3-{[(1R)-1-(2-chloro-3-{[1-(3,3,3-trifluoropropyl)-4-piperidinyl]oxy}phenyl)ethyl]oxy}-5-[5-(1-methyl-1H-pyrazol-4-yl)-1H-benzimidazol-1-yl]-2-thiophenecarboxamide] gave an IC50 of less than 500 nM. The value for `C[C@@H](Oc1cc(-n2cnc3cc(Cl)ccc32)sc1C(N)=O)c1cccc(OCCN2CCOCC2)c1Cl` [Example 26, 5-(5-Chloro-1H-benzimidazol-1-yl)-3-{[(1R)-1-(2-chloro-3-{[2-(4-morpholinyl)ethyl]oxy}phenyl)ethyl]oxy}-2-thiophenecarboxamide] was less than 500 nM; that for `C[C@@H](Oc1cc(-n2cnc3ccc(Cl)cc32)sc1C(N)=O)c1cccc(OC2CCN(C)CC2)c1Cl` [Example 53, 5-(6-Chloro-1H-benzimidazol-1-yl)-3-[((1R)-1-(2-chloro-3-([1-methyl-4-piperidinyl)oxy]phenyl)}oxy]-2-thiophenecarboxamide] was less than 500 nM; that for `CC(Oc1cc(-n2cnc3cc(-c4cnn(C)c4)ccc32)sc1C(N)=O)c1cccc(OC2CCN(C)CC2)c1` (racemic) [Example 74, (±)-3-[(1-{3-[(1-methyl-4-piperidinyl)oxy]phenyl}ethyl)oxy]-5-[5-(1-methyl-1H-pyrazol-4-yl)-1H-benzimidazol-1-yl]-2-thiophenecarboxamide] was less than 500 nM.

The molecule `C[C@@H](Oc1cc(-n2cnc3cc(-c4cnn(C)c4)ccc32)sc1C(N)=O)c1cccc(OCC2CCN(C(=O)OC(C)(C)C)CC2)c1Cl` [Example 43, 1,1-Dimethylethyl 4-[({3-[(1R)-1-({2-(aminocarbonyl)-5-[5-(1-methyl-1H-pyrazol-4-yl)-1H-benzimidazol-1-yl]-3-thienyl}oxy)ethyl]-2-chlorophenyl}oxy)methyl]-1-piperidinecarboxylate] came in with a half-inhibitory concentration (IC50) greater than 1000 nM. `C[C@@H](Oc1cc(-n2cnc3cc(F)c(Cl)cc32)sc1C(N)=O)c1cccc(OC2CCN(C)CC2)c1Cl` [Example 70, 5-(6-Chloro-5-fluoro-1H-benzimidazol-1-yl)-3[((1R)-1-(2-chloro-3-[(1methyl-4-piperidinyl)oxy]phenyl}ethyl)oxy]-2-thiophenecarboxamide] displayed an IC50 of less than 500 nM.

In turn, `C[C@@H](Oc1cc(-n2cnc3cc(Cl)ccc32)sc1C(N)=O)c1cccc(OC2CCNCC2)c1Cl` [Example 8, 5-(5-Chloro-1H-benzimidazol-1-yl)-3-({(1R)-1-[2-chloro-3-(4-piperidinyloxy)phenyl]ethyl}oxy)-2-thiophenecarboxamide] displayed an IC50 of less than 500 nM.

In turn, `C[C@@H](Oc1cc(-n2cnc3cc(OC(F)(F)F)ccc32)sc1C(N)=O)c1cccc(OC2CCNCC2)c1Cl` [Example 61] came in with an IC50 of less than 500 nM.

The molecule `C[C@@H](Oc1cc(-n2cnc3ccc(C#N)cc32)sc1C(N)=O)c1cccc(OC2CCN(C)CC2)c1Cl` [Example 4, 3-((1R)-1-{2-chloro-3-[(1-methylpiperidin-4-yl)oxy]phenyl}-ethoxy)-5-(6-cyano-1H-benzimidazol-1-yl)thiophene-2-carboxamide] returned a half-maximal inhibitory concentration (IC50) of less than 500 nM. With `COc1cc2ncn(-c3cc(O[C@H](C)c4cccc(OCCN5CCN(C)CC5)c4Cl)c(C(N)=O)s3)c2cc1OC` [Example 42, 5-[5,6-Bis(methyloxy)-1H-benzimidazol-1-yl]-3-{[(1R)-1-(2-chloro-3-{[2-(4-methyl-1-piperazinyl)ethyl]oxy}phenyl)ethyl]oxy}-2-thiophenecarboxamide] the figure was less than 500 nM; with `C[C@@H](Oc1cc(-n2cnc3cc(-c4cccnc4)ccc32)sc1C(N)=O)c1cccc(OC2CCN(C)CC2)c1Cl` [Example 11, 3-[((1R)-1-[2-chloro-3-[(1-methyl-4-piperidinyl)oxy]phenyl}ethyl)oxy}-5-[5-(3-pyridinyl)-1H-benzimidazol-1-yl]-2-thiophenecarboxamide], less than 500 nM. As to `C[C@@H](Oc1cc(-n2cnc3ccc(Cl)cc32)sc1C(N)=O)c1cccc(OC2CCNCC2)c1Cl` [Example 52, 5-(6-Chloro-1H-benzimidazol-1-yl)-3-({(1R)-1-[2-chloro-3-(4-piperidinyloxy)phenyl}ethyl)oxy)-2-thiophenecarboxamide], the IC50 is less than 500 nM.

In the case of `C[C@@H](Oc1cc(-n2cnc3cc(-c4cc[n+]([O-])cc4)ccc32)sc1C(N)=O)c1cccc(OC2CCNCC2)c1Cl` [Example 37, 3-({(1R)-1-1-[2-Chloro-3-(4-piperidinyloxy)phenyl]ethyl}oxy)-5-[5-(1-oxido-4-pyridinyl)-1H-benzimidazol-1-yl]-2-thiophenecarboxamide], the concentration for half-maximal inhibition (IC50) was greater than 1000 nM.

With `C[C@@H](Oc1cc(-n2cnc3cc(-c4cnn(C)c4)ccc32)sc1C(N)=O)c1cccc(OCCN2CCOCC2)c1Cl` [Example 25, 3-{[(1R)-1-(2-chloro-3-{[2-(4-morpholinyl)ethyl]oxy}phenyl)ethyl]oxy}-5-[5-(1-methyl-1H-pyrazol-4yl)-1H-benzimidazol-1-yl]-2-thiophenecarboxamide], the 50% inhibitory concentration (IC50) was less than 500 nM.
